In patent publication US20250319063A1, “METHODS AND COMPOUNDS FOR RESTORING MUTANT P53 FUNCTION” (PMV PHARMACEUTICALS, INC., priority 2022, published 2025):
“Also recorded” adds a separate entry of the source. Like-named read-outs stand apart in the source and are kept apart here.

How the values were obtained:
[1] = Single oral dose plasma pharmacokinetics in fasted and fed healthy subjects (food effect, ethnicity); assay type: in vivo, human; settings: for AUC(0-t) / AUC(0-inf) / Cmax / Tmax / Vd/F / half-life: both sexes, human, plasma, po; for Vd/F: read-out: Vz/F, GeoMean; for half-life: read-out: t½, GeoMean (converted)
Protocol: Compound 1 pharmacokinetics were analyzed in healthy subjects administered Compound 1 in a fasted state. A subject was considered fasted if the subject fasted overnight for at least 10 hours and water was permitted ad libitum except for 1 hour before and after drug administration. For fasted subjects, Compound 1 was administered with at least 8 ounces (240 mL) of water. Compound 1 pharmacokinetics were also analyzed in healthy subjects administered Compound 1 in a fed state. A subject was considered fed after consuming a high-fat meal 30 minutes prior to drug administration, and the meal was finished at least 5 minutes prior to drug administration. For both fasted and fed subjects, no food was permitted for at least 4 hours post-dose and water was permitted starting at 1 hour post-dose.
Subjects were healthy, non-smoking male and female Caucasian/non-Asian or Japanese participants 18 to 55 years of age with a BMI between […].
In Part 1 of the study, analysis was performed to compare 1000 mg Compound 1 in fed and fasted states. A dose of 1000 mg of Compound 1 consisted of two 500 mg tablets administered as a single oral dose. The analysis of Part 1 was performed at two separate time points in two different schemes (1A and 1B).
In scheme 1A, at period 1, Compound 1 analyzed in healthy subjects administered 1000 mg Compound 1 (n=3) in a fed state. Following a washout period of 7-9 days, these subjects were then administered 1000 mg Compound 1 in a fasted state.
Separately, in scheme 1B, at period 1, Compound 1 was analyzed in healthy subjects administered 1000 mg Compound 1 (n=3) in a fasted state. Following a washout period of 7-9 days, these subjects were then administered 1000 mg Compound 1 in a fed state.
In Part 2 of the study, analysis was performed to compare 2000 mg Compound 1 in fed and fasted states and also to compared ethnicity of Caucasian/non-Asian subjects and Japanese subjects. A dose of 2000 mg of Compound 1 consisted of four 500 mg tablets administered as a single oral dose.
For Caucasian/non-Asian subjects (n=20) the analysis was performed at two separate time points in two different schemes (2A and 2B). During scheme 2A, at period 1, Compound 1 was analyzed in subjects administered 2000 mg Compound 1 (n=10) in a fed state. Following a washout period of 7-9 days, at period 2, these subjects were then administered 2000 mg Compound 1 in a fasted state. Separately in scheme 2B, at period 1, Compound 1 was analyzed in subjects administered 2000 mg Compound 1 (n=10) in a fasted state. Following a washout period of 7-9 days, at period 2, these subjects were then administered 2000 mg Compound 1 in a fed state.
For Japanese subjects (n=6), Compound 1 pharmacokinetics were analyzed in subjects administered 2000 mg Compound 1 in a fasted state.
Blood for the analysis of study drug (Compound 1) and metabolite (M1) were collected.
Various pharmacokinetic (PK) parameters were determined for each subject. (Tables 9-12 and FIGS. 23-28).
Statistical analysis of Compound 1 plasma PK parameters were evaluated for food effects for Part 1 (Table 11) and Part 2 (Table 12). The log-transformed PK parameters were analyzed using an analysis of variance model with treatment (fed/fasted condition) and period as fixed effects and participant as a random effect.

[2] = 1000 mg, 1000 mg oral, Fed (Part 1)
[3] = 2000 mg, 2000 mg oral, Fasted, Caucasian/Non-Asian
[4] = 2000 mg, 2000 mg oral, Fasted, Japanese
[5] = 2000 mg, 2000 mg oral, Fed, Caucasian/Non-Asian

## CNC(=O)c1ccc(NCC#Cc2cc3c(N[C@@H]4CCN(C)C[C@@H]4F)cccc3n2CC(F)(F)F)c(OC)c1 [Compound 1, 4-((3-(4-(((3S,4R)-3-fluoro-1-methylpiperidin-4-yl)amino)-1-(2,2,2-trifluoroethyl)-1H-indol-2-yl)prop-2-yn-1-yl)amino)-3-methoxy-N-methylbenzamide]
[1]; 1000 mg, 1000 mg oral, Fed (Part 1), read-out: AUC0-96, GeoMean
  AUC(0-t): 177 µg·h/mL
[1]; 1000 mg, 1000 mg oral, Fed (Part 1), read-out: AUC0-inf, GeoMean
  AUC(0-inf): 180 µg·h/mL
[1]; 1000 mg, 1000 mg oral, Fed (Part 1), read-out: AUC0-inf, Geometric Mean (analysis of variance model)
  AUC(0-inf): 180 µg·h/mL
[1]; 1000 mg, 1000 mg oral, Fed (Part 1), read-out: AUC0-last, GeoMean
  AUC(0-t): 177 µg·h/mL
[1]; 1000 mg, 1000 mg oral, Fed (Part 1), read-out: AUC0-last, Geometric Mean (analysis of variance model)
  AUC(0-t): 177 µg·h/mL
[1]; 1000 mg, 1000 mg oral, Fed (Part 1), read-out: Cmax, GeoMean
  Cmax: 10600 ng/mL
[1]; 1000 mg, 1000 mg oral, Fed (Part 1), read-out: Cmax, Geometric Mean (analysis of variance model)
  Cmax: 10600 ng/mL
[1]; 1000 mg, 1000 mg oral, Fed (Part 1), read-out: Tmax, Median
  Tmax: 3.25 h
[1]; 1000 mg, 1000 mg oral, Fed (Part 1), read-out: Tmax, Minimum, Maximum
  Tmax: 1.51 to 5.01 h
[1]; [2]
  Vd/F: 127 L
  half-life: 15.8 h
[1]; 2000 mg, 2000 mg oral, Fasted (Part 2), read-out: AUC0-inf, Geometric Mean (analysis of variance model)
  AUC(0-inf): 260 µg·h/mL
[1]; 2000 mg, 2000 mg oral, Fasted (Part 2), read-out: AUC0-last, Geometric Mean (analysis of variance model)
  AUC(0-t): 259 µg·h/mL
[1]; 2000 mg, 2000 mg oral, Fasted (Part 2), read-out: Cmax, Geometric Mean (analysis of variance model)
  Cmax: 10400 ng/mL
[1]; 2000 mg, 2000 mg oral, Fasted, Caucasian/Non-Asian, read-out: AUC0-24, GeoMean
  AUC(0-t): 138 µg·h/mL
[1]; 2000 mg, 2000 mg oral, Fasted, Caucasian/Non-Asian, read-out: AUC0-96, GeoMean
  AUC(0-t): 255 µg·h/mL
[1]; 2000 mg, 2000 mg oral, Fasted, Caucasian/Non-Asian, read-out: AUC0-inf, GeoMean
  AUC(0-inf): 259 µg·h/mL
[1]; 2000 mg, 2000 mg oral, Fasted, Caucasian/Non-Asian, read-out: AUC0-last, GeoMean
  AUC(0-t): 254 µg·h/mL
[1]; 2000 mg, 2000 mg oral, Fasted, Caucasian/Non-Asian, read-out: Cmax, GeoMean
  Cmax: 10300 ng/mL
[1]; 2000 mg, 2000 mg oral, Fasted, Caucasian/Non-Asian, read-out: Tmax, Median
  Tmax: 2.52 h
[1]; 2000 mg, 2000 mg oral, Fasted, Caucasian/Non-Asian, read-out: Tmax, Minimum, Maximum
  Tmax: 1.03 to 5.94 h
[1]; [3]
  Vd/F: 212 L
  half-life: 19.9 h
[1]; 2000 mg, 2000 mg oral, Fasted, Japanese, read-out: AUC0-24, GeoMean
  AUC(0-t): 193 µg·h/mL
[1]; 2000 mg, 2000 mg oral, Fasted, Japanese, read-out: AUC0-96, GeoMean
  AUC(0-t): 326 µg·h/mL
[1]; 2000 mg, 2000 mg oral, Fasted, Japanese, read-out: AUC0-inf, GeoMean
  AUC(0-inf): 338 µg·h/mL
[1]; 2000 mg, 2000 mg oral, Fasted, Japanese, read-out: AUC0-last, GeoMean
  AUC(0-t): 326 µg·h/mL
[1]; 2000 mg, 2000 mg oral, Fasted, Japanese, read-out: Cmax, GeoMean
  Cmax: 14700 ng/mL
[1]; 2000 mg, 2000 mg oral, Fasted, Japanese, read-out: Tmax, Median
  Tmax: 3.94 h
[1]; [4]
  Vd/F: 149 L
  half-life: 17.4 h
[1]; 2000 mg, 2000 mg oral, Fed (Part 2), read-out: AUC0-inf, Geometric Mean (analysis of variance model)
  AUC(0-inf): 465 µg·h/mL
[1]; 2000 mg, 2000 mg oral, Fed (Part 2), read-out: AUC0-last, Geometric Mean (analysis of variance model)
  AUC(0-t): 449 µg·h/mL
[1]; 2000 mg, 2000 mg oral, Fed (Part 2), read-out: Cmax, Geometric Mean (analysis of variance model)
  Cmax: 19100 ng/mL
[1]; 2000 mg, 2000 mg oral, Fed, Caucasian/Non-Asian, read-out: AUC0-24, GeoMean
  AUC(0-t): 250 µg·h/mL
[1]; 2000 mg, 2000 mg oral, Fed, Caucasian/Non-Asian, read-out: AUC0-96, GeoMean
  AUC(0-t): 448 µg·h/mL
[1]; 2000 mg, 2000 mg oral, Fed, Caucasian/Non-Asian, read-out: AUC0-inf, GeoMean
  AUC(0-inf): 479 µg·h/mL
[1]; 2000 mg, 2000 mg oral, Fed, Caucasian/Non-Asian, read-out: AUC0-last, GeoMean
  AUC(0-t): 448 µg·h/mL
[1]; 2000 mg, 2000 mg oral, Fed, Caucasian/Non-Asian, read-out: Cmax, GeoMean
  Cmax: 19000 ng/mL
[1]; 2000 mg, 2000 mg oral, Fed, Caucasian/Non-Asian, read-out: Tmax, Median
  Tmax: 4.03 h
[1]; 2000 mg, 2000 mg oral, Fed, Caucasian/Non-Asian, read-out: Tmax, Minimum, Maximum
  Tmax: 2.11 to 8.08 h
[1]; [5]
  Vd/F: 137 L
  half-life: 22.7 h
[1]; single oral doses
  plasma concentration-time profile: reached the maximum peak rapidly and declined roughly in a bi-exponential manner; also recorded: rapidly absorbed
Phase 1 dose escalation
  maximum tolerated dose: 1500 mg BID
female, human, in vivo
  daily dose tolerated: ≤ 2,500 mg
human, in vivo
  Diarrhea (TRAE), patients: 5 n
  Most frequent treatment-related AEs (>15%): nausea, vomiting, AST/ALT increase, anemia, blood creatinine increase, and fatigue
  Vomiting (TRAE), patients: 5 n
  daily dose tolerated: ≤ 2,000 mg
  tolerance of treatment: overall good tolerance of treatment with mild nausea and elevated LFTs that resolved with steroids
human, in vivo, 21 days
  Dose limiting toxicities: Grade 3 AST/APT increase and grade 3 acute kidney injury
